One data set has as its system S1P receptor 1 (S1PR1). Nature of the data set: S1PR1 expression in fibroblasts (Western blot). Particulars: normal or Alzheimer's patient fibroblasts, 10 μM. (Immunoblotting shows a protein as a band on a membrane.)
In a further data set the test system is S1P. Briefly: S1P level in fibroblasts. The note with it: normal or Alzheimer's patient fibroblasts, 10 μM.
Another data set deals with Sphk. Briefly: Sphk activity in fibroblasts. The note with it: normal or Alzheimer's patient fibroblasts, 10 μM.
Data set [1] can be described thus: Brain distribution after oral administration in normal mice. Particulars: oral 10 mg/kg. Format: in vivo, mouse.
In the next data set the test system is astrocytes (GFAP). Nature of the data set: Astrocytes (GFAP) in brain of APP/PS1 mouse. The note with it: SCNPA 100 mg/kg/day, FTY720 1 mg/kg/day.
The nature of a further data set: in vivo. Particulars: mouse, po, 10 mg/kg.
Data set [2] deals with APP/PS1 mouse. Nature of the data set: Open field test and dark & light test in APP/PS1 mouse. The data set is classed as in vivo. The note with it: SCNPA 100 mg/kg/day, FTY720 1 mg/kg/day. The procedure: (§1) In order to confirm a potential effect on learning and memory, a Morris Water Maze (MWM) test was performed. In the MWM, the mouse learned a task 4 times a day for 10 days, a platform was removed on day 11, and aprobe trial was performed. To evaluate activity and anxiety, an open field test and a dark and light test were performed. In the open field test, the mouse was placed in a quadrangular box for 10 minutes and then overall activity and a time spent to move around a wall side and a center were measured. In the dark and light test, the mouse was placed in a quadrangular box consisting of a dark box and a light box for 10 minutes, and a time staying in each box, the number of reciprocating the boxes, and a time to first enter into a light box were measured.

Data set [3] can be described thus: Stability in human liver microsomes. Format: in vitro ADME.
For another data set, the system named is TNF-a, IL-1b, IL-6. Nature of the data set: mRNA expression of inflammatory cytokines in brain of APP/PS1 mouse (real-time quantitative PCR). The data set is classed as in vivo. The note with it: SCNPA 100 mg/kg/day, FTY720 1 mg/kg/day. How it is done: A real-time quantitative PCR method was used to measure the expression levels of inflammatory response-related cytokines (TNF-α, IL-1b, and IL-6). Total RNA was extracted from the brain tissue using an RNeasy Plus mini kit (Qiagen, Korea, Ltd), and cDNA was synthesized from 5 μg of total RNA using a kit from Clontech Co., Ltd. (Mountain View, CA). In addition, by using a Corbett research RG-6000 real-time PCR instrument, real-time quantitative PCR was performed by setting 95° C., 10 min; 95° C., 10 sec; 58° C., 15 sec; 72° C., 20 sec as one cycle and repeating 40 cycles.

Data set [4] can be described thus: Stability in mouse liver microsomes. The data set is classed as in vitro ADME. (Liver microsomes are a subcellular fraction often used to study metabolism.)
The test system of a further data set is amyloid-β deposition. Briefly: Amyloid-β deposition in medulla and hippocampus of APP/PS1 mouse (ThioS, Aβ40, Aβ42 staining). Format: in vivo. The note with it: 100 mg/kg/day. How it is done:
In order to confirm whether the inhibition of ASM activity by administration of the ASM inhibitory compounds has an effect on Alzheimer's lesions, first, the medulla and hippocampus regions of the mouse were stained with Thioflavin S (ThioS) according to a known method to confirm protofibril amyloid-β deposition. In addition, immunofluorescence staining of Aβ40 and Aβ42 was performed to confirm the amyloid-β deposition.

Data set [5] is described as follows: Pharmacokinetic test in blood after oral or intravenous administration in normal mice. Particulars: mouse, 10 mg/kg.
In data set [6] the test system is APP/PS1 mouse. Briefly: Morris Water Maze test in APP/PS1 mouse. Format: in vivo. The note with it: compared to SCNPA101 or FTY720. How it is done:
as §1

A word on the bioavailability: it is dose-corrected exposure relative to a reference, in per cent.

Method for S1P receptor 1 (S1PR1): Human fibroblast lines (normal and PS1) were obtained from Coriell Institute and cultured in a DMEM containing 15% FBS at 37° C. and 5% CO2 and used. Thereafter, the cell lines were treated with 10 μM of each of the synthesized ASM inhibitory compounds and FTY720 (Cayman), and then changes in ASM activity, Ceramide, S1P, and S1PR1 were measured.
Protein expression of S1PR1 was analyzed using Western blotting. First, antibodies against S1PR1 (abcam) and β-actin (Santa Cruz) were used, and densitometric quantification was performed using ImageJ software (US National Institutes of Health).
Method for Sphk: Human fibroblast lines (normal and PS1) were obtained from Coriell Institute and cultured in a DMEM containing 15% FBS at 37° C. and 5% CO2 and used.
To measure a concentration level of Sphk, 3 μl of the fibroblast sample was mixed with a Sphk activity buffer and stored at 37° C. Subsequently, 54 μl of ethanol was added and the mixture was centrifuged after terminating a hydrolysis reaction. After 30 μl of a supernatant was transferred to a glass vial, 5 μl of the supernatant was applied to a UPLC system. Each Sphk concentration level was quantified using a UPLC system by comparing the Sphk concentration level with NBD bound to sphingosine and S1P. For extraction and quantification of Ceramide and S1P, lipids were extracted from the samples by a known method, and the dried lipid extract was resuspended in 25 μl of 0.2% Igepal CA-630 (Sigma-Aldrich), and the concentration levels of Ceramide and S1P were quantified using the UPLC system.

Consider `CCCCCCCCc1ccc(CCC(N)(CO)CO)cc1` [FTY720], for which, in the data set with S1P receptor 1 (S1PR1), the “expression of S1PR1” value is on record as “reduced”. Besides, the “expression of S1P” value in the data set on S1P is listed as “reduced”. Moreover, the Sphk activity result in the data set on Sphk was “reduced”.
In data set [1] (mouse, brain), `CCCCCCCCCCCCn1cc(C(N)(CO)CO)nn1` [SCNPA101, 2-amino-2-(1-dodecyl-1H-1,2,3-triazol-4-yl)propane-1,3-diol, reference compound] showed a Kp of 3.61. Also, in the data set on astrocytes (GFAP), the activity of astrocytes result is given as “significantly decreased”. The compound also returned a bioavailability in “in vivo” of 19.6%. The activity and anxiety entry in the data set on APP/PS1 mouse [2] was “improved”. In addition, the “remaining amount after 30 minutes” value in [3] was 7.8%; in data set [4], 86.36%. Also, in the data set with TNF-a, IL-1b, IL-6, the “gene expression of inflammatory cytokines TNF-a, IL-1b, and IL-6” value is listed as “restored to a normal level”.
Consider `CCCCCCCCCn1cc(C(N)(CO)CO)nn1` [SCNPA201, 2-amino-2-(1-nonanyl-1H-1,2,3-triazol-4-yl)propane-1,3-diol], for which the brain distribution values in data set [1] was found to be 3.64. Further, in the data set with amyloid-β deposition, the Aβ40 deposition entry is recorded as “lowest”, the Aβ42 deposition entry is listed as “lowest” and the “protofibril Aβ deposition (Thioflavin S)” value is “lowest”. In addition, in data set [5], the bioavailability stood at 50.3%. In addition, in the data set with APP/PS1 mouse [6], the “effect of improving cognition” value was “more remarkable”. For the same compound, the “metabolic stability (in words)” value in [3] is “high metabolic stability”. Also, the “gene expression of inflammatory cytokines TNF-a, IL-1b, and IL-6” value with TNF-a, IL-1b, IL-6 is listed as “restored to a normal level”. The “remaining amount after 30 minutes” value in data set [4] worked out at 95.66%.
Consider `CCCCCCn1cc(C(N)(CO)CO)nn1` [SCNPA501, 2-amino-2-(1-hexyl-1H-1,2,3-triazol-4-yl)propane-1,3-diol], for which the brain distribution values in data set [1] was determined as 1.41. In [5], this compound came in with a bioavailability of 72.3%. Further, the “metabolic stability (in words)” value in data set [3] was “high metabolic stability”. For the same compound, the “remaining amount after 30 minutes” value in data set [4] came to 98.21%.

The values are drawn from patent US12398109B2, “2-amino-2-(1,2,3-triazole-4-yl)propane-1,3-diol derivative of novel compound for directly inhibiting ASM activity, and use thereof” (KYUNGPOOK NATIONAL UNIVERSITY INDUSTRY-ACADEMIC COOPERATION …, priority 2018, dated 2025).
